Reference: ChEMBL document CHEMBL1641528, “Reverse type I inhibitor of Mycobacterium tuberculosis CYP125A1” (Bioorg Med Chem Lett, 2011)

Target: T1, Steroid C26-monooxygenase (Mycobacterium tuberculosis, UniProt P9WPP1)
T1 sequence (P9WPP1 whole entry): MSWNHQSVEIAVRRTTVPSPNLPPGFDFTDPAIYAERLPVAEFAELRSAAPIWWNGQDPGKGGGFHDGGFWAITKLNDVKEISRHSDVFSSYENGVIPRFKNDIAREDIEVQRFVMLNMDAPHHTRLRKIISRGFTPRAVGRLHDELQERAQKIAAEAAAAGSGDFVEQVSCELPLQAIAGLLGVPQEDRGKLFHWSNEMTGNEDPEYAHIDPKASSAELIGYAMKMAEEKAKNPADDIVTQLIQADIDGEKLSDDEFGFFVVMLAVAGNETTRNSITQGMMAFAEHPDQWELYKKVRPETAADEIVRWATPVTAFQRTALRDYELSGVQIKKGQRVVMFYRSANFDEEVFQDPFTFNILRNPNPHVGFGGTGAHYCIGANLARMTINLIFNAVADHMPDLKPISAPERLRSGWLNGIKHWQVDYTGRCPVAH
Assay: Inhibition of Mycobacterium tuberculosis H37Rv CYP125A1 expressed in Escherichia coli at 200 uM

CC1CCC(C(=O)NC(Cc2c[nH]c3ccccc23)C(=O)Nc2ccncc2)CC1 (stereo unspecified)
inhibition at 200 µM: 30%
